Assay results: US9521847B2, “Synergistic weed control from applications of pyridine carboxylic acid herbicides and synthetic auxin herbicides and/or auxin transport inhibitors” (Dow AgroSciences LLC, priority 2014, dated 2016)
Where two headings read alike, the source gives them in different places.

How the values were obtained:
[1] = test system: kochia (KCHSC, Kochia scoparia); experiment: Greenhouse postemergence trial, % visual injury; type: in vivo; conditions: KCHSC
Procedure: Following the protocol in Example 1, compound 1 and compound 2 were combined with 2,4 D EHE (EC) and applied to kochia (KCHSC, Kochia scoparia) and the phytotoxicity of the herbicidal compositions was measured.
Following the protocol in Example 1, compound 1 (EC) and Compound 2 (SC) were combined with diflufenzopyr and applied to kochia (Kochia scoparia, KCHSC) and the phytotoxicity of the herbicidal composition was measured.

[2] = test system: velvetleaf (Abutilon theophrasti, ABUTH); experiment: Greenhouse postemergence trial, % visual injury; type: in vivo; conditions: for % visual injury Obs: 5 g ae/ha alone, 20-22 d
[3] = test system: nutsedge (Cyperus esculentus, CYPES); experiment: Greenhouse postemergence trial, % visual injury; type: in vivo; conditions: for pest or weed control at 5 g/ha: Cyperus, post-emergence, 5 g ae/ha alone, 20-22 d, read-out: % visual injury Obs
[4] = test system: sunflower (Helianthus annus, HELAN); experiment: Greenhouse postemergence trial, % visual injury; type: in vivo
[5] = test system: wild buckwheat (Polygonum convolvulus, POLCO); experiment: Greenhouse postemergence trial, % visual injury; type: in vivo; conditions: for % visual injury Obs: 5 g ae/ha alone, 20-22 d
[6] = test system: large crabgrass (Digitaria sanguinalis, DIGSA); experiment: Greenhouse postemergence trial, % visual injury; type: in vivo; conditions: DIGSA, 5 g ae/ha
[7] = test system: Canadian thistle (CIRAR, Cirsium arvense); experiment: Greenhouse postemergence trial, % visual injury; conditions: for % visual injury, Obs: CIRAR; for pest or weed control at 5 g/ha: Cirsium arvense, post-emergence;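 for all read-outs here: plants sprayed at second to third true leaf stage, injury scored visually 20-22 d later against solvent-blank sprayed controls, 0 meaning no injury and 100 complete kill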
[8] = test system: spring rape (Brassica napus, BRSNN); experiment: Greenhouse postemergence trial, % visual injury
[9] = test system: wild pansy (Viola tricolor, VIOTR); experiment: Greenhouse postemergence trial, % visual injury; conditions: for % visual injury, Obs: VIOTR; for pest or weed control at 5 g/ha: Viola tricolor, post-emergence, read-out: % visual injury Obs
winter wheat (TRZAW) [10] = experiment: Greenhouse postemergence trial, crop phytotoxicity (% visual injury); conditions: for % visual injury, Obs: TRZAW; for % visual injury Obs: crop, 5 g ae/ha alone, 20-22 d
maize (ZEAMX) = experiment: as above; conditions: for % visual injury Obs: crop, 5 g ae/ha alone, 20-22 d
common rice (ORYSA) = experiment: as above; conditions: ORYSA
[11] = test system: grain sorghum (Sorghum vulgare, SORVU); experiment: Greenhouse postemergence trial, % visual injury; type: in vivo; conditions: for % visual injury Obs: 5 g ae/ha alone, 20-22 d
[12] = test system: poinsettia (Euphorbia heterophylla, EPHHL); experiment: Greenhouse postemergence trial, % visual injury; conditions: Euphorbia heterophylla, post-emergence, read-out: % visual injury Obs, 5 g ae/ha alone; 20-22 d
winter wheat (TRZAW) [13] = conditions: Triticum aestivum (winter wheat), in vivo
[14] = test system: common chickweed (Stellaria media, STEME); experiment: Greenhouse postemergence trial, % visual injury; type: in vivo
[15] = test system: common lambsquarters (CHEAL, Chenopodium album L.); experiment: Greenhouse postemergence trial, % visual injury; type: in vivo; conditions: Chenopodium album, post-emergence; 5 g ae/ha alone; 20-22 d; read-out: % visual injury Obs
[16] = Brassica napus, post-emergence, read-out: % visual injury Obs

For `COc1c(Cl)ccc(-c2nc(C(=O)OCc3ccccc3)c(Cl)c(N)c2F)c1F` [Rinskor ™], the “% visual injury, Obs” value ([1]; 5 g ae/ha) was 50%, the “% visual injury, Obs” value ([2]; ABUTH, 5 g ae/ha) was 80% and the “% visual injury, Obs” value ([3]; CYPES, 5 g ae/ha) was 70%. For the same compound, the “% visual injury, Obs” value ([4]; HELAN, 5 g ae/ha) was 85%, the “% visual injury, Obs” value ([5]; POLCO, 5 g ae/ha) was 60% and the “% visual injury, Obs” value [6] was 0%. For the same compound, the “% visual injury, Obs” value ([7]; 5 g ae/ha) was 70%, the “% visual injury, Obs” value ([8]; BRSNN, 5 g ae/ha) was 20% and the “% visual injury, Obs” value ([9]; 5 g ae/ha) was 10%. The “% visual injury, Obs” value (winter wheat (TRZAW) [10]; 5 g ae/ha) was 0%, the “% visual injury, Obs” value (maize (ZEAMX); ZEAMX, 5 g ae/ha) was 0% and the “% visual injury, Obs” value (common rice (ORYSA); 5 g ae/ha) was 0%.

With `C/C(=N\NC(=O)Nc1cc(F)cc(F)c1)c1ncccc1C(=O)O` [diflufenzopyr] the “% visual injury, Obs.” value ([1]; diflufenzopyr 3.5 g ae/ha, Table 60) was 0%, the “% visual injury, Obs.” value ([1]; diflufenzopyr 3.5 g ae/ha, Table 61) was 0% and the “% visual injury, Obs.” value ([1]; diflufenzopyr 7 g ae/ha, Table 60) was 0%. The “% visual injury, Obs.” value ([1]; diflufenzopyr 7 g ae/ha, Table 61) was 0%.

For `C=C(F)c1c(C(=O)O)nc(-c2ccc3cc[nH]c3c2F)c(F)c1N` [compound 15], the “% visual injury Obs” value [2] was 30%, the pest or weed control at 5 g/ha [3] was 25% and the “% visual injury Obs” value ([4]; 5 g ae/ha alone, 20-22 d) was 90%. The “% visual injury Obs” value [5] was 30%, the “% visual injury Obs” value [11] was 0% and the pest or weed control at 5 g/ha ([7]; read-out: % visual injury Obs) was 15%. For the same compound, the pest or weed control at 5 g/ha [12] was 73%, the pest or weed control at 5 g/ha [9] was 33% and the “% visual injury Obs” value (winter wheat (TRZAW) [10]) was 5%. The “% visual injury Obs” value (maize (ZEAMX)) was 0%.

In the case of `Nc1c(F)c(-c2ccc3cc[nH]c3c2)nc(C(=O)O)c1Cl` [compound 16], the “% visual injury (Obs)” value ([3]; compound 16 5 g ae/ha) is reported as 25%, the “% visual injury (Obs)” value ([11]; compound 16 5 g ae/ha) is reported as 13% and the “% visual injury (Obs)” value (winter wheat (TRZAW) [13]) is reported as 0%. The pest or weed control at 5 g/ha ([7]; read-out: % visual injury (Obs)) was 20%, the plant injury at 5 g/ha ([8]; Brassica napus, post-emergence, read-out: % visual injury (Obs)) was 60% and the “% visual injury (Obs)” value ([9]; compound 16 5 g ae/ha) was 25%.

With `Cc1cc(Cl)ccc1OCC(=O)O` [MCPA DMA, MCPA-dimethylammonium] the “% visual injury, Obs” value ([14]; STEME, 400 g ae/ha) was 20%, the “% visual injury, Obs” value ([7]; 400 g ae/ha) was 65% and the plant injury at 400 g/ha ([8]; Brassica napus, post-emergence, read-out: % visual injury, Obs) was 95%. The “% visual injury, Obs” value ([9]; 400 g ae/ha) was 30%, the “% visual injury, Obs” value (winter wheat (TRZAW) [10]; 400 g ae/ha) was 0% and the “% visual injury, Obs” value (common rice (ORYSA); 400 g ae/ha) was 0%.

`Nc1c(F)c(-c2ccc3ccoc3c2)nc(C(=O)O)c1Cl` [compound 10] was tested, and the “% visual injury Obs” value [2] was 15%, the pest or weed control at 5 g/ha [3] was 5% and the “% visual injury Obs” value [5] was 10%. The “% visual injury Obs” value [11] was 5%, the “% visual injury Obs” value ([14]; 5 g ae/ha alone, 20-22 d) was 70% and the pest or weed control at 5 g/ha ([7]; read-out: % visual injury Obs) was 15%. It also gave a plant injury at 5 g/ha [8, 16] of 15%, a pest or weed control at 5 g/ha [12] of 75% and a pest or weed control at 5 g/ha [9] of 25%. The “% visual injury Obs” value (winter wheat (TRZAW) [10]) was 5%.

In the case of `COC(=O)c1nc(-c2ccc3ccoc3c2F)nc(N)c1OC` [compound 12], the pest or weed control at 5 g/ha [15] is reported as 84%, the “% visual injury Obs” value [2] is reported as 10% and the pest or weed control at 5 g/ha [3] is reported as 5%. The “% visual injury Obs” value [11] was 0%, the pest or weed control at 5 g/ha ([7]; read-out: % visual injury Obs) was 10% and the plant injury at 5 g/ha [8, 16] was 50%. For the same compound, the pest or weed control at 5 g/ha [12] was 35%, the pest or weed control at 5 g/ha [9] was 18% and the “% visual injury Obs” value (winter wheat (TRZAW) [10]) was 0%. The “% visual injury Obs” value (maize (ZEAMX)) was 0%.
